“Also recorded” adds a separate entry of the source.
Test system: antibody-forming cells (AFC) in the spleen
Test: Influence of compound on humoral immune response to sheep erythrocytes, C57B1/6 female mice (AFC in spleen, hemagglutinins)
Assay type: in vivo
Conditions: for Amount of antibody-forming cells per 10^6 spleen cells / Amount of antibody-forming cells per spleen / Effect on relative amount of AFC (per 10^6 spleen cells) / Effect on total AFC amount (per spleen) / Effect on hemagglutinin titers / Spleen index / Amount of hemagglutinins: i.v.; for Amount of antibody-forming cells per 10^6 spleen cells / Amount of antibody-forming cells per spleen / Effect on relative amount of AFC (per 10^6 spleen cells) / Effect on total AFC amount (per spleen): 5th day; for Amount of antibody-forming cells per 10^6 spleen cells / Amount of antibody-forming cells per spleen: M ± SEM; for Effect on relative amount of AFC (per 10^6 spleen cells) / Effect on total AFC amount (per spleen) / Effect on hemagglutinin titers: vs control; for Spleen index: with SRBC i.p.; for Amount of hemagglutinins: serum
Procedure: The increase was calculated as compared with the amount of cells in the animals immunised only with sheep erythrocytes.
0.15 ml of compound 10 was administered intravenously to 6 mice females of CS7B1/6 line (weight 18-22 g) in doses of 45.5, 91 and 136.5 μg of compound 10 per capita for each testing group according to the dose. Simultaneously, a suspension of 5·10^7 sheep erythrocytes was injected intraperitoneally (0.2 ml per capita). Mice in the control group were injected intravenously with equal volume of saline. The effects of compound 10 on humoral immune response were analyzed both by counting the quantity of AFC in the spleen according to Cunningham (per 10^6 spleen cells and per spleen) and estimating the titers of hemagglutining antibodies in serum of the animals (Cunningham A. J., Nature, 1965, Vol.207, No 5001. P.1106-1107), while the titers of hemagglutinating antibodies were evaluated according to litterature (Evans J. et al., Cell, 1974; Vol 3., p.153-158, Feizi T., Menger E., Transfusion, 1970, Vol. 10, p.33-35,).
(§1) 0.15 ml of compound 11 was administered intravenously to 6 female mice of the C57B1/6 line (weight 18-22 g) in doses of 45.5, 91 and 136.5 μg of compound 11 per capita for each testing group according to the dose. Simultaneously, a suspension of 5·10^7 sheep erytrocytes was injected intraperitoneally (0.2 ml per capita). Mice in the control group were injected intravenously with an equal volume of saline. The effects of compound 11 on humoral immune response was analysed both by counting the quantity of AFC in the spleen according to Cunningham (per 10^6 spleen cells and per spleen) and estimating the titers of hemagglutining antibodies in serum of the animals.
as §1, with “12” for “11”, “erythrocytes” for “erytrocytes”, “analyzed” for “analysed”
as §1, with “compound 8” for “compound 11”, “sheep erythrocytes” for “sheep erytrocytes”, “Mice of” for “Mice in”, “response were analyzed” for “response was analysed”
0.15 ml of compound 3 was administered intravenously to 6 female mice of the C57B1/6 line (weight 18-22 g) in doses of 45.5, 91 and 136.5 μg of compound 3 per capita for each testing group according to the dose. Simultaneously, a suspension of 5·10^7 sheep erytrocytes was injected intraperitoneally (0.2 ml per capita). Mice of the control group were injected intravenously with equal volume of saline.

| Compound | Immunogenic activity (45.5 μg/mouse) | Amount of antibody-forming cells per 10^6 spleen cells (45.5 μg/mouse) | Amount of antibody-forming cells per spleen (45.5 μg/mouse) | Effect on relative amount of AFC (per 10^6 spleen cells) (45.5 μg/mouse) | Effect on total AFC amount (per spleen) (45.5 μg/mouse) | Effect on hemagglutinin titers (45.5 μg/mouse) | Spleen index (45.5 μg/mouse) | immunostimulating effect in vivo in micelle form (91 μg/mouse) | Amount of antibody-forming cells per 10^6 spleen cells (91 μg/mouse) | Amount of antibody-forming cells per spleen (91 μg/mouse) | Effect on hemagglutinin titers (91 μg/mouse) | Spleen index (91 μg/mouse) | Amount of antibody-forming cells per 10^6 spleen cells (136.5 μg/mouse) | Amount of antibody-forming cells per spleen (136.5 μg/mouse) | Effect on hemagglutinin titers (136.5 μg/mouse) | Spleen index (136.5 μg/mouse) | Effect on relative amount of AFC (per 10^6 spleen cells) (91 μg/mouse) | Effect on total AFC amount (per spleen) (91 μg/mouse) | immunostimulating action (136.5 μg/mouse) | Immunogenic activity (45.5 and 91 μg/mouse) | also measured |
| --- | --- | --- | --- | --- | --- | --- | --- | --- | --- | --- | --- | --- | --- | --- | --- | --- | --- | --- | --- | --- | --- |
| CC1=C(/C=C/C(C)=C/C=C/C(C)=C/C(=O)N[C@@H](Cc2ccc(OP(=O)(O)O)cc2)C(=O)O)C(C)(C)CCC1 (stereo in doubt) [Compound 4, N-(all-trans-Retinoyl)-O-phospho-L-tyrosine] | no immunogenic activity | 405.0±47.9 cells per 10^6 spleen cells | 55.0±6.7 × 10^3 | −0.3 p >0.05% | −8.9 p > 0.05% | −3.2 p > 0.05% | 6.6 ± 0.5 10^−3 | display immunostimulating effect in vivo | 692.9±44.8 cells per 10^6 spleen cells | 87.6±4.3 × 10^3 | +4.8 p > 0.05% | 6.3 ± 0.4 10^−3 | 1354.3±99.9 cells per 10^6 spleen cells | 138.9±10.0 × 10^3 |  |  |  |  |  |  | immunostimulating action (91 and 136.5 μg/mouse): high immunostimulating action |
| CC1=C(/C=C/C(C)=C/C=C/C(C)=C\C(=O)NCCOP(=O)(O)O)C(C)(C)CCC1 [Compound 1a, N-(13cis-Retinoyl)-O-phospho-2-aminoethanol] | no immunogenic activity | 815.8±70.9 cells per 10^6 spleen cells | 104.6±10.7 × 10^3 | +5.6 p > 0.05% | +16.4 p > 0.05% | −1,3 p > 0.05% | 6.1 ± 0.2 10^−3 | display immunostimulating effect in vivo | 997.2±43.4 cells per 10^6 spleen cells | 114.5±8.2 × 10^3 | −1,3 p > 0.05% | 6.2 ± 0.2 10^−3 | 1176.9±58.5 cells per 10^6 spleen cells | 149.4±9.4 × 10^3 | +6,5 p > 0.05% | 6.9 ± 0.3 10^−3 |  |  |  |  | immunostimulating action (91 and 136.5 μg/mouse): marked immunostimulating action |
| CC/C=C\C/C=C\C/C=C\C/C=C\C/C=C\C/C=C\CCC(=O)N[C@H](C(=O)O)[C@@H](C)OP(=O)(O)O [Compound 11, N-(cis-4,7,10,13,16,19-docosahexaenoyl)-O-phospho-L-threonine] |  | 676.8±77.1 cells per 10^6 spleen cells | 85.9±8.3 × 10^3 | −15.3 p > 0.05% | −15.0 p > 0.05% | 0% | 6.2 ± 0.2 10^−3 |  | 896.8±111.8 cells per 10^6 spleen cells | 111.2±11.8 × 10^3 | −3.6 p > 0.05% | 6.9 ± 0.5 10^−3 | 1336.5±59.0 cells per 10^6 spleen cells | 182.5±7.8 × 10^3 |  | 7.5 ± 0.4 10^−3 | +12.2 p > 0.05% | +10.0 p > 0.05% | marked immunostimulating action | no immunogenic activity | Amount of hemagglutinins (136.5 μg/mouse): 9.3±0.2 Log2 T |
| CC/C=C\C/C=C\C/C=C\C/C=C\C/C=C\C/C=C\CCC(=O)N[C@@H](Cc1ccc(OP(=O)(O)O)cc1)C(=O)O [Compound 12, N-(cis-4,7,10,13,16,19-docosahexaenoyl)-O-phospho-L-tyrosine] |  | 263.8±23.6 cells per 10^6 spleen cells | 31.8±2.8 × 10^3 | −9.4 p >0.05% | −9.1 p >0.05% | +2.8 p >0.05% | 6.3 ± 0.3 10^−3 |  | 307.8±30.9 cells per 10^6 spleen cells | 40.2±2.7 × 10^3 | +2.8 p > 0.05% | 5.9 ± 0.3 10^−3 | 682.6±33.3 cells per 10^6 spleen cells | 69.6±6.0 × 10^3 | +7.7 p > 0.05% | 6.3 ± 0.4 10^−3 | +5.7 p > 0.05% | +14.9 p > 0.05% | high immunostimulating action | no immunogenic activity |  |
| CC/C=C\C/C=C\C/C=C\C/C=C\C/C=C\CCCC(=O)NCCOP(=O)(O)O [Compound 13, N-(cis-5,8,11,14,17-eicosapentaenoyl)-O-phospho-2-aminoethanol] |  | 608.2±61.3 cells per 10^6 spleen cells | 48.2±6.5 × 10^3 | −3.2 p > 0.05% | +5.0 p > 0.05% | +7,8 p > 0.05% | 5.4 ± 0.6 10^−3 |  | 525.0±97.2 cells per 10^6 spleen cells | 49.4±6.2 × 10^3 | +5,6 p > 0.05% | 5.7 ± 0.8 10^−3 | 885.9±65.8 cells per 10^6 spleen cells | 68.2±6.9 × 10^3 | +14,4 p > 0.05% | 5.3 ± 0.4 10^−3 | −16.5 p > 0.05% | +7.6 p > 0.65% | high immunostimulating action; also recorded: marked immunostimulating action | no immunogenic activity |  |
| CC/C=C\C/C=C\C/C=C\CCCCCCCC(=O)NCCOP(=O)(O)O [Compound 17, N-(cis-9,12,15-octadecatrienoyl)-O-phospho-2-aminoethanol] |  | 457.3±40.7 cells per 10^6 spleen cells | 51.1±4.4 × 10^3 | −3.0 p > 0.05% | −7.4 p > 0.05% |  | 5.8 ± 10^−3 |  | 523.8±45.3 cells per 10^6 spleen cells | 63.5±5.1 × 10^3 | +2.6 p > 0.05% | 5.7 ± 10^−3 | 619.6±38.9 cells per 10^6 spleen cells | 71.6±4.7 × 10^3 | +2.6 p > 0.05% | 5.9 ± 10^−3 | +11.1 p > 0.05% | +15.0 p > 0.05% | marked immunostimulating action | no immunogenic activity | Amount of hemagglutinins (45.5 μg/mouse): 7.6 ± 0.2 Log2 T; Amount of hemagglutinins (91 μg/mouse): 7.8 ± 0.3 Log2 T; Amount of hemagglutinins (136.5 μg/mouse): 7.8 ± 0.4 Log2 T |
